Reference: patent US12435059B2, “AMP-activated protein kinase inhibitors and methods of making and using the same” (The Regents of the University of Colorado, priority 2019, dated 2025)
Read-outs that look alike come from different tables or passages of the source.

Columns and labels:
Assay in all cases: biochemical
Format in all cases: binding
468 kinases [1] = molecular target: 468 kinases (Homo sapiens, UniProt O14965); conditions: AURKA; read-out: % Inhibition @ 100 nM
468 kinases [2] = molecular target: 468 kinases (Homo sapiens, UniProt O43353); conditions: RIPK2; read-out: % Inhibition @ 100 nM
468 kinases [3] = molecular target: 468 kinases (Homo sapiens, UniProt O60285); conditions: ARK5; read-out: % Inhibition @ 100 nM
468 kinases [4] = molecular target: 468 kinases (Homo sapiens, UniProt O60331); conditions: PIPSK1C; read-out: % Inhibition @ 100 nM
468 kinases [5] = molecular target: 468 kinases (Homo sapiens, UniProt O75582); conditions: read-out: % Inhibition @ 100 nM
468 kinases [6] = molecular target: 468 kinases (Homo sapiens, UniProt O75676); conditions: read-out: % Inhibition @ 100 nM
468 kinases [7] = molecular target: 468 kinases (Homo sapiens, UniProt O75914); conditions: PAK3; read-out: % Inhibition @ 100 nM
468 kinases [8] = molecular target: 468 kinases (Homo sapiens, UniProt P00533, L861Q); conditions: EGFR(L861Q); read-out: % Inhibition @ 100 nM
468 kinases [9] = molecular target: 468 kinases (Homo sapiens, UniProt P00533, T790M); conditions: EGFR(T790M); read-out: % Inhibition @ 100 nM
468 kinases [10] = molecular target: 468 kinases (Homo sapiens, UniProt P10721); conditions: KIT; read-out: % Inhibition @ 100 nM
468 kinases [11] = molecular target: 468 kinases (Homo sapiens, UniProt P27448); conditions: MARK3; read-out: % Inhibition @ 100 nM
468 kinases [12] = molecular target: 468 kinases (Homo sapiens, UniProt P29376); conditions: LTK; read-out: % Inhibition @ 100 nM
468 kinases [13] = molecular target: 468 kinases (Homo sapiens, UniProt P30530); conditions: AXL; read-out: % Inhibition @ 100 nM
468 kinases [14] = molecular target: 468 kinases (Homo sapiens, UniProt P42336, E545K); conditions: PIK3CA(E545K); read-out: % Inhibition @ 100 nM
468 kinases [15] = molecular target: 468 kinases (Homo sapiens, UniProt P42336, H1047Y); conditions: PIK3CA(H1047Y); read-out: % Inhibition @ 100 nM
468 kinases [16] = molecular target: 468 kinases (Homo sapiens, UniProt P42336, I800L); conditions: PIK3CA(I800L); read-out: % Inhibition @ 100 nM
468 kinases [17] = molecular target: 468 kinases (Homo sapiens, UniProt Q13873); conditions: BMPR2; read-out: % Inhibition @ 100 nM
468 kinases [18] = molecular target: 468 kinases (Homo sapiens, UniProt Q6DT37); conditions: DMPK2; read-out: % Inhibition @ 100 nM
468 kinases [19] = molecular target: 468 kinases (Homo sapiens, UniProt Q8IU85); conditions: CAMK1D; read-out: % Inhibition @ 100 nM
468 kinases [20] = molecular target: 468 kinases (Homo sapiens, UniProt Q8NEV4); conditions: MYO3A; read-out: % Inhibition @ 100 nM
468 kinases [21] = molecular target: 468 kinases (Homo sapiens, UniProt Q8NFD2); conditions: ANKK1; read-out: % Inhibition @ 100 nM
468 kinases [22] = molecular target: 468 kinases (Homo sapiens, UniProt Q8TF76); conditions: HASPIN; read-out: % Inhibition @ 100 nM
468 kinases [23] = molecular target: 468 kinases (Homo sapiens, UniProt Q8WTQ7); conditions: GRK7; read-out: % Inhibition @ 100 nM
468 kinases [24] = molecular target: 468 kinases (Homo sapiens, UniProt Q8WU08); conditions: YANK1; read-out: % Inhibition @ 100 nM
468 kinases [25] = molecular target: 468 kinases (Homo sapiens, UniProt Q96NX5); conditions: CAMK1G; read-out: % Inhibition @ 100 nM
468 kinases [26] = molecular target: 468 kinases (Homo sapiens, UniProt Q9BZL6); conditions: PRKD2; read-out: % Inhibition @ 100 nM
468 kinases [27] = molecular target: 468 kinases (Homo sapiens, UniProt Q9NRH2); conditions: SNRK; read-out: % Inhibition @ 100 nM
468 kinases [28] = molecular target: 468 kinases (Homo sapiens, UniProt Q9NYL2); conditions: ZAK; read-out: % Inhibition @ 100 nM
468 kinases [29] = molecular target: 468 kinases (Homo sapiens, UniProt Q9UK32); conditions: read-out: % Inhibition @ 100 nM
468 kinases [30] = molecular target: 468 kinases (Homo sapiens, UniProt Q9Y243); conditions: AKT3; read-out: % Inhibition @ 100 nM
468 kinases [31] = molecular target: 468 kinases (Homo sapiens, UniProt Q9Y2K2); conditions: QSK; read-out: % Inhibition @ 100 nM
468 kinases [32] = molecular target: 468 kinases (Homo sapiens, UniProt Q9Y5S2); conditions: MRCKB; read-out: % Inhibition @ 100 nM

CCN(CC)CCNC(=O)c1c(C)[nH]c(/C=C2\C(=O)Nc3ccc(CCO)cc32)c1C [Compound No. 10, (Z)—N-(2-(Diethylamino)ethyl)-5-((5-(2-hydroxyethyl)-2-oxoindolin-3-ylidene)methyl)-2,4-dimethyl-1H-pyrrole-3-carboxamide]
inhibition at 0.1 µM (468 kinases [1]): 0% | inhibition at 0.1 µM (468 kinases [2]): 0% | inhibition at 0.1 µM (468 kinases [3]): 84% | inhibition at 0.1 µM (468 kinases [4]): 32% | inhibition at 0.1 µM (468 kinases [5]; RPS6KA5(Kin.Dom.1-N-terminal)): 11% | inhibition at 0.1 µM (468 kinases [5]; RPS6KA5(Kin.Dom.2-C-terminal)): 0% | inhibition at 0.1 µM (468 kinases [6]; RPS6KA4(Kin.Dom.1-N-terminal)): 8% | inhibition at 0.1 µM (468 kinases [6]; RPS6KA4(Kin.Dom.2-C-terminal)): 0% | inhibition at 0.1 µM (468 kinases [7]): 36% | inhibition at 0.1 µM (468 kinases [8]): 39% | inhibition at 0.1 µM (468 kinases [9]): 0% | inhibition at 0.1 µM (468 kinases [10]): 80% | inhibition at 0.1 µM (468 kinases [11]): 0% | inhibition at 0.1 µM (468 kinases [12]): 8% | inhibition at 0.1 µM (468 kinases [13]): 88% | inhibition at 0.1 µM (468 kinases [14]): 56% | inhibition at 0.1 µM (468 kinases [15]): 4% | inhibition at 0.1 µM (468 kinases [16]): 41% | inhibition at 0.1 µM (468 kinases [17]): 0% | inhibition at 0.1 µM (468 kinases [18]): 0% | inhibition at 0.1 µM (468 kinases [19]): 0% | inhibition at 0.1 µM (468 kinases [20]): 0% | inhibition at 0.1 µM (468 kinases [21]): 53% | inhibition at 0.1 µM (468 kinases [22]): 59% | inhibition at 0.1 µM (468 kinases [23]): 40% | inhibition at 0.1 µM (468 kinases [24]): 0% | inhibition at 0.1 µM (468 kinases [25]): 0% | inhibition at 0.1 µM (468 kinases [26]): 0% | inhibition at 0.1 µM (468 kinases [27]): 12% | inhibition at 0.1 µM (468 kinases [28]): 10% | inhibition at 0.1 µM (468 kinases [29]; RSK4(Kin.Dom.1-N-terminal)): 0% | inhibition at 0.1 µM (468 kinases [29]; RSK4(Kin.Dom.2-C-terminal)): 4% | inhibition at 0.1 µM (468 kinases [30]): 47% | inhibition at 0.1 µM (468 kinases [31]): 0% | inhibition at 0.1 µM (468 kinases [32]): 0%

CCN(CC)CCNC(=O)c1c(C)[nH]c(/C=C2\C(=O)Nc3ccc(CCC(N)=O)cc32)c1C [Compound No. 16, (Z)-5-((5-(3-Amino-3-oxopropyl)-2-oxoindolin-3-ylidene)methyl)-N-(2-(diethylamino)ethyl)-2,4-dimethyl-1H-pyrrole-3-carboxamide]
inhibition at 0.1 µM (468 kinases [1]): 41% | inhibition at 0.1 µM (468 kinases [2]): 18% | inhibition at 0.1 µM (468 kinases [3]): 71% | inhibition at 0.1 µM (468 kinases [4]): 15% | inhibition at 0.1 µM (468 kinases [5]; RPS6KA5(Kin.Dom.1-N-terminal)): 0% | inhibition at 0.1 µM (468 kinases [5]; RPS6KA5(Kin.Dom.2-C-terminal)): 17% | inhibition at 0.1 µM (468 kinases [6]; RPS6KA4(Kin.Dom.1-N-terminal)): 34% | inhibition at 0.1 µM (468 kinases [6]; RPS6KA4(Kin.Dom.2-C-terminal)): 35% | inhibition at 0.1 µM (468 kinases [7]): 13% | inhibition at 0.1 µM (468 kinases [8]): 4% | inhibition at 0.1 µM (468 kinases [9]): 30% | inhibition at 0.1 µM (468 kinases [10]): 8% | inhibition at 0.1 µM (468 kinases [11]): 0% | inhibition at 0.1 µM (468 kinases [12]): 0% | inhibition at 0.1 µM (468 kinases [13]): 92.5% | inhibition at 0.1 µM (468 kinases [14]): 41% | inhibition at 0.1 µM (468 kinases [15]): 28% | inhibition at 0.1 µM (468 kinases [16]): 20% | inhibition at 0.1 µM (468 kinases [17]): 50% | inhibition at 0.1 µM (468 kinases [18]): 20% | inhibition at 0.1 µM (468 kinases [19]): 6% | inhibition at 0.1 µM (468 kinases [20]): 1% | inhibition at 0.1 µM (468 kinases [21]): 66% | inhibition at 0.1 µM (468 kinases [22]): 68% | inhibition at 0.1 µM (468 kinases [23]): 76% | inhibition at 0.1 µM (468 kinases [24]): 23% | inhibition at 0.1 µM (468 kinases [25]): 37% | inhibition at 0.1 µM (468 kinases [26]): 16% | inhibition at 0.1 µM (468 kinases [27]): 10% | inhibition at 0.1 µM (468 kinases [28]): 10% | inhibition at 0.1 µM (468 kinases [29]; RSK4(Kin.Dom.1-N-terminal)): 70% | inhibition at 0.1 µM (468 kinases [29]; RSK4(Kin.Dom.2-C-terminal)): 22% | inhibition at 0.1 µM (468 kinases [30]): 17% | inhibition at 0.1 µM (468 kinases [31]): 0% | inhibition at 0.1 µM (468 kinases [32]): 15%
